Results on 4 compounds are retold here after US20240191267A1, “Tropane Alkaloid Transporters and Methods of Making Tropane Alkaloids Using the Same” (priority 2021, published 2024).

SMILES strings stand for the structures. Several values for one entry are separate records, joined by “and”; a condition that tells them apart may be missing. Equal values may be shown once.

Series [1] has as its target T1, AbUGT (UDP-glucosyltransferase 84A27) (Atropa belladonna, UniProt A0A3B6XRM0).
T1 construct: expressed in transfected cells; host or cells: Saccharomyces cerevisiae CSY1251 (tropine-producing, CEN.PK2-derived), low-copy plasmid
T1 sequence (A0A3B6XRM0 1-490): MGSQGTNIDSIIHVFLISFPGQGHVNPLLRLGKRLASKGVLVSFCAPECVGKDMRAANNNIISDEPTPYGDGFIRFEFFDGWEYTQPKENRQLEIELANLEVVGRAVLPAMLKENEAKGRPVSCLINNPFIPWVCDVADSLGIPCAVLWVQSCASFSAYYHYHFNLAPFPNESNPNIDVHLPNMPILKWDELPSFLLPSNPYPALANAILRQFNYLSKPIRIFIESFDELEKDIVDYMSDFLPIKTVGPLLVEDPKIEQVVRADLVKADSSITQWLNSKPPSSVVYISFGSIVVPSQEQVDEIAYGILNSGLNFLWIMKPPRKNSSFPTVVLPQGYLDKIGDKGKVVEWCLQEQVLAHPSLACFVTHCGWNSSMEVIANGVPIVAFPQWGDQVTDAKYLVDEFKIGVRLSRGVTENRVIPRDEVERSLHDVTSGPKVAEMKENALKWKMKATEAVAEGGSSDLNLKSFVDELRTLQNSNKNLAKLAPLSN
Description: Conversion of fed phenylpropanoids to glucosides by yeast expressing AbUGT. The class given is cell-based. To be noted: AbUGT from low-copy plasmid in CSY1251; 500 μM substrate, 72 h, selective media.
Description: (B) Heatmap of percent conversion of fed phenylpropanoids to glucosides by yeast engineered for UGT84A27 expression. UGT84A27 orthologs or a BFP negative control were expressed from low-copy plasmids in CSY1251. Transformed cells were cultured in selective media supplemented with 500 μM PLA, CA, or FA for 72 h prior to LC-MS/MS analysis. Data represent the mean of n=3 biologically independent samples ±standard deviation.

For series [2], the system named is UGT84A27 orthologs (AbUGT, BsUGT, DmUGT). The class given is cell-based, Atropa belladonna, Brugmansia sanguinea, D. metel. As to conditions: all three UGT orthologs, low-copy plasmids in CSY1251; 500 μM substrate, 72 h.
Description: FIG. 33 illustrates the substrate specificity of UDP-glucosyltransferase 84A27 (UGT84A27) orthologs from TA-producing Solanaceae expressed in engineered yeast. […] (A) Phenylpropanoids tested as glucose (Glu) acceptors for UGT84A27 in engineered yeast. […] (B) Heatmap of percent conversion of fed phenylpropanoids to glucosides by yeast engineered for UGT84A27 expression. UGT84A27 orthologs or a BFP negative control were expressed from low-copy plasmids in CSY1251. Transformed cells were cultured in selective media supplemented with 500 μM PLA, CA, or FA for 72 h prior to LC-MS/MS analysis. Data represent the mean of n=3 biologically independent samples ±standard deviation.
In series [3] the test system is AbUGT84A27 active site mutants. Kind of series: Conversion of fed phenylpropanoids to glucosides by yeast expressing AbUGT active site mutants. The class given is cell-based, Atropa belladonna. To be noted: F130Y, L205F, I292Q point mutants of AbUGT in CSY1251; 500 μM substrate, 72 h. Here is the method: FIG. 36 illustrates the substrate specificity of AbUGT84A27 active site mutants. […] AbUGT wild-type, active site mutants, or a BFP negative control were expressed from low-copy plasmids in CSY1251. Transformed cells were cultured in selective media supplemented with 500 μM PLA, CA, or FA for 72 h prior to LC-MS/MS analysis. Data represent the mean of n=3 biologically independent samples ±standard deviation.
6.1) As wild-type yeast produce only trace levels of PLA, production of this TA precursor must be increased to permit sufficient accumulation of downstream TAs. To improve PLA production, heterologous phenylpyruvate reductases (PPRs) may be expressed in the engineered host cells. PPR orthologs from E. coli, Lactobacillus, A. belladonna, and Wickerhamia fluorescens, as well as lactate dehydrogenases (LDHs) from Bacillus and Lactobacillus with reported activity on 3-phenylpyruvate (Table 1) were screened for activity in yeast by expressing each enzyme from a low-copy plasmid in CSY1251 and measuring PLA production by LC-MS/MS after 72 h of growth in selective media. […] As such, WfPPR was selected for integration into CSY1251 to make strain CSY1287. […] 6.4.2.1) Extra copies of PGM2 and UGP1 were expressed from low-copy plasmids in CSY1288 and PLA glucoside production was measured following 72 h of growth in selective media. […]

In a further series the test system is AbPUP1. Kind of series: Yeast toxicity assay and growth curves, AD1-8 expressing AbPUP1.
Excerpt: (§1) Solid lines and shaded/hatched bars respectively indicate mean and standard deviation of n=3 biologically independent samples.
(§2) Heatmap values were extracted from mean growth curves in FIG. 80.
as §1, §1
(§3) Yeast toxicity assays and growth curves. Candidate transporters for use in non-plant cells for the purpose of enhancing or modulating metabolite localization may be characterized in any suitable strain of the non-plant organism of interest. […] An example protocol for the characterization of TA transporters in yeast is provided as follows. […] Strain AD1-8 is transformed as described earlier with a low-copy plasmid harboring a constitutively expressed transporter candidate or blue fluorescent protein as negative control and a suitable auxotrophic marker, such as URA3, LEU2, TRP1, or […]. Transformants are inoculated into 1 mL of selective YNB-G media and grown overnight (˜14-18 h) at 30° C. and 460 rpm. […] Culture densities (OD600) are then measured every 30 min for 48 h in a suitable plate reader, such as a SpectraMax i3 plate reader (Molecular Devices), with chamber temperature 30° C. and orbital shaking every 30 min. […]

For another series, the system named is AbLP1. Description: Yeast toxicity assay and growth curves, AD1-8 expressing AbLP1.
Excerpt: as §1, §2, §1, §1, §3

A further series concerns Strain AD1-8. To be noted: selective media.
Excerpt: as §1, §2, §3

With `O=C(O)[C@H](O)Cc1ccccc1` [PLA, (D)-3-phenyllactic acid], the “percent conversion of fed phenylpropanoid to glucoside” value is < 3% and 2.7% in series [1]; less than 3% in series [2]; less than 3% in series [3].
Regarding `O=C(O)/C=C/c1ccccc1` [cinnamic acid, trans-cinnamic acid], the “percent conversion of fed phenylpropanoid to glucoside” value in series [1] is approximately 60%.
For the compound `CN1[C@@H]2CC[C@H]1CC(OC(=O)[C@H](O)Cc1ccccc1)C2` (stereo partly shown) [littorine], the “θHM, ratio of time for half-maximal OD600 at 20 mM relative to at 0 mM” value is approximately 1.3 in the series on AbPUP1 (AD1-8 expressing AbPUP1 from low-copy plasmid, selective media, 0-20 mM alkaloid); approximately 1.1 with AbLP1 (AD1-8 expressing AbLP1 from low-copy plasmid, selective media, 0-20 mM alkaloid); approximately 1.0 in the series on Strain AD1-8 (AD1-8 expressing BFP control from low-copy plasmid, 0-20 mM alkaloid).
In the case of `CN1[C@@H]2CC[C@H]1C[C@@H](O)C2` [tropine], the “sensitivity to alkaloid conferred by transporter expression” value in the series with AbPUP1 (AD1-8 expressing AbPUP1, tropine only at 1 mM) is “not”; with AbLP1 (AD1-8 expressing AbLP1, tropine only at 1 mM), “not”. Further, the “growth of AD1-8 at tested concentrations higher than 1 mM” value in the series on Strain AD1-8 (concentrations above 1 mM) was “severely retarded the growth”.
